Results reported in US7524962B2, “Biphenyl compounds useful as muscarinic receptor antagonists” (Theravance, Inc., priority 2004, dated 2009).

Biological target: T1, hM3 muscarinic receptor subtype (Homo sapiens, UniProt P20309)
T1 construct: expressed in transfected cells; crude membranes
Assay: Radioligand binding assay ([3H]-NMS displacement), CHO cell membranes
Details: [3H]-NMS at 1 nM, CHO cell membranes expressing hM3, 60 minutes at 37° C.; read-out: Ki value for the M3 muscarinic receptor subtype
Procedure: A. Membrane Preparation from Cells Expressing hM1, hM2, hM3 and hM4 Muscarinic Receptor Subtypes
CHO (Chinese hamster ovary) cell lines stably expressing cloned human hM1, hM2, hM3 and hM4 muscarinic receptor subtypes, respectively, were grown to near confluency in medium consisting of HAM's F-12 supplemented with 10% FBS (Fetal Bovine Serum) and 250 μg/mL Geneticin. The cells were grown in a 5% CO2, 37° C. incubator and lifted with 2 mM EDTA in dPBS. Cells were collected by 5 minute centrifugation at 650×g, and cell pellets were either stored frozen at −80° C. or membranes were prepared immediately. […] The protein concentration of the membrane suspension was determined by the method described in Lowry, O. et al., Journal of Biochemistry 193:265 (1951). […]
Radioligand binding assays were performed in 96-well microtiter plates in a total assay volume of 100 μL. […] Filter plates were rinsed three times with wash buffer (10 mM HEPES) to remove unbound radioactivity. […] The plates were then counted in a PerkinElmer Topcount liquid scintillation counter (PerkinElmer Inc., Wellesley, Mass.). Binding data were analyzed by nonlinear regression analysis with the GraphPad Prism Software package (GraphPad Software, Inc., San Diego, Calif.) using the one-site competition model. […]

T1 sequence (P20309 whole entry): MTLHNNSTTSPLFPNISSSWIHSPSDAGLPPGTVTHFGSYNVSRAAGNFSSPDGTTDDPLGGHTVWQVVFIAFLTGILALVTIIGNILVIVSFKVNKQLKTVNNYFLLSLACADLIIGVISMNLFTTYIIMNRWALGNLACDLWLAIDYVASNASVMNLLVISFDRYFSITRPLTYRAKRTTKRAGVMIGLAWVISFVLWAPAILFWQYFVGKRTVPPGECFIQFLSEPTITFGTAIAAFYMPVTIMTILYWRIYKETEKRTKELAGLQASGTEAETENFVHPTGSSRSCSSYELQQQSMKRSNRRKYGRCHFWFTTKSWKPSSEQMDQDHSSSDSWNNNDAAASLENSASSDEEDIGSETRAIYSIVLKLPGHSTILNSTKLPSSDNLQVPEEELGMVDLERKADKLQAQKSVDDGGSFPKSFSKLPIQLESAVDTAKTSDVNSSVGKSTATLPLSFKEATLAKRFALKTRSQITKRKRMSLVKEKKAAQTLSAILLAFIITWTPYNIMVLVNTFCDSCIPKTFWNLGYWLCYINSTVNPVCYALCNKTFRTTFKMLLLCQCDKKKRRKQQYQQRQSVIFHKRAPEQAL

NC(=O)C1CCN(CCCCCNC(=O)CCN2CCC(OC(=O)Nc3ccccc3-c3ccccc3)CC2)CC1 [Example 1, Biphenyl-2-ylcarbamic Acid 1-{2-[5-(4-Carbamoylpiperidin-1-yl)pentylcarbamoyl]ethyl}piperidin-4-yl Ester] was tested, and the Ki was less than 5 nM.
